Test results published in article PMC8196580, “Identification of Kaurane-Type Diterpenes as Inhibitors of Leishmania Pteridine Reductase I” (Molecules, 2021).
Where two headings read alike, the source gives them in different places.

Columns and labels:
L. major [1] = tested on: L. major; parameters: method as in ChEMBL; settings: ref ChEMBL, cited from earlier work
L. major [2] = test: ChEMBL dataset of pIC50 values against L. major used for the RF model (Table S1); assay type: cell-based, Leishmania major; further: call rule not given here
[3] = ChemBL structures with pIC50 values used for Random forest model construction, L. major
[4] = Active/Inactive class assigned to the ChEMBL pIC50 value for Random forest model construction, ref ChEMBL
[5] = ChemBL structures with pIC50 values used for Random forest model construction (Table S1)
[6] = Active/Inactive class assigned to ChemBL structures for Random forest model construction (Table S1)

Structure (SMILES) | pIC50 Value (L. major [1]; [3]) | Outcome (L. major [2]; [4]) | pIC50 Value (L. major [1]; [5]) | Outcome (L. major [2]; [6])
O=[N+]([O-])c1ccc2ncnc(Nc3ccc(Br)cc3)c2c1 [CHEMBL3760107] | 4.21 | Inactive |  | 
CC1=C(C(=O)/C=C/c2cccc([N+](=O)[O-])c2)C(c2ccccc2)NC(=O)N1C (stereo not shown) [CHEMBL3785174] |  |  | 5.71 | Active
CC(=O)C1=C(C)NC(=O)NC1c1cccc([N+](=O)[O-])c1 (stereo not shown) [CHEMBL3785264] |  |  | 5.61 | Active
CC1=C(C(=O)/C=C/c2ccc(Cl)cc2)C(c2ccccc2)NC(=O)N1C (stereo not shown) [CHEMBL3785670] |  |  | 5.77 | Active
CC(=O)C1=C(CNc2ccc(C(=O)/C=C/c3ccc(Cl)cc3)cc2)N(C)C(=O)NC1c1ccccc1 (stereo not shown) [CHEMBL3785674] |  |  | 5.97 | Active
CC1=C(C(=O)Nc2ccc(C(=O)/C=C/c3ccc(O)cc3)cc2)C(c2cccc(O)c2)NC(=S)N1 (stereo not shown) [CHEMBL3785704] |  |  | 5.98 | Active
CC(=O)C1=C(C)N(C)C(=O)NC1c1ccccc1 (stereo not shown) [CHEMBL3785882] |  |  | 5.59 | Active
CC1=C(C(=O)Nc2ccc(C(=O)/C=C/c3cccc([N+](=O)[O-])c3)cc2)C(c2ccc(C)cc2)NC(=S)N1 (stereo not shown) [CHEMBL3786068] |  |  | 5.90 | Active
COCC1=C(C(=O)OC)C(c2cccc([N+](=O)[O-])c2)NC(=O)N1 (stereo not shown) [CHEMBL3786102] |  |  | 5.53 | Active
CC(=O)C1=C(CNc2ccc(C(=O)/C=C/c3ccc(O)cc3)cc2)N(C)C(=O)NC1c1ccccc1 (stereo not shown) [CHEMBL3786140] |  |  | 5.98 | Active
CC(=O)C1=C(C)NC(=O)NC1c1cccc(C)c1 (stereo not shown) [CHEMBL3786214] |  |  | 5.44 | Active
CC(=O)C1=C(CNc2ccc(C(=O)/C=C/c3ccccc3)cc2)N(C)C(=O)NC1c1ccccc1 (stereo not shown) [CHEMBL3786339] |  |  | 5.94 | Active
CC(=O)C1=C(CNc2ccc(C(=O)/C=C/c3cccc([N+](=O)[O-])c3)cc2)N(C)C(=O)NC1c1ccccc1 (stereo not shown) [CHEMBL3786374] |  |  | 5.88 | Active
CC(=O)C1=C(CNc2ccc(C3=NNC(c4ccc(O)cc4)C3)cc2)N(C)C(=O)NC1c1ccccc1 (stereo not shown) [CHEMBL3786468] |  |  | 6.02 | Active
CC1=C(C(=O)Nc2ccc(C(=O)/C=C/c3ccc(O)cc3)cc2)C(c2ccc(C)cc2)NC(=S)N1 (stereo not shown) [CHEMBL3786661] |  |  | 5.96 | Active
CCOC(=O)C1=C(C)NC(=S)NC1c1ccc(C)cc1 (stereo not shown) [CHEMBL3786732] |  |  | 5.66 | Active
CC1=C(C(=O)Nc2ccc(C(=O)/C=C/c3cccc([N+](=O)[O-])c3)cc2)C(c2cccc(O)c2)NC(=S)N1 (stereo not shown) [CHEMBL3786907] |  |  | 5.95 | Active
CC(=O)C1=C(CNc2ccc(C(=O)/C=C/c3ccc(N(C)C)cc3)cc2)N(C)C(=O)NC1c1ccccc1 (stereo not shown) [CHEMBL3787141] |  |  | 5.86 | Active
CC1=C(C(=O)/C=C/c2ccc(O)cc2)C(c2ccccc2)NC(=O)N1C (stereo not shown) [CHEMBL3787563] |  |  | 5.77 | Active
CCCCCCCCCC(=O)OCCc1ccc(O)cc1 [CHEMBL3960630] | 4.19 | Inactive |  | 

Structure (SMILES) | pIC50 Value (L. major [1]; [3]) | Outcome (L. major [2]; [4]) | pIC50 Value (L. major [1]; [5]) | Outcome (L. major [2]; [6])
COc1ccccc1-c1nnc(-c2ccc(C(=O)N/N=C/c3cc(O)ccc3O)cc2)o1 [CHEMBL4059674] |  |  | 5.35 | Active
COc1ccccc1-c1nnc(-c2ccc(C(=O)N/N=C/c3ccc(Cl)cc3)cc2)o1 [CHEMBL4060153] | 4.47 | Inactive |  | 
COc1ccccc1-c1nnc(-c2ccc(C(=O)N/N=C/c3ccccc3F)cc2)o1 [CHEMBL4060698] | 5.29 | Active |  | 
COc1ccccc1-c1nnc(-c2ccc(C(=O)N/N=C/c3cccc(O)c3O)cc2)o1 [CHEMBL4065149] |  |  | 5.85 | Active
COc1ccccc1-c1nnc(-c2ccc(C(=O)N/N=C/c3ccc([N+](=O)[O-])cc3)cc2)o1 [CHEMBL4067171] | 4.25 | Inactive |  | 
COc1ccccc1-c1nnc(-c2ccc(C(=O)N/N=C/c3ccc(Cl)cc3Cl)cc2)o1 [CHEMBL4068809] | 5.29 | Active |  | 
COc1ccc(/C=N/NC(=O)c2ccc(-c3nnc(-c4ccccc4OC)o3)cc2)cc1O [CHEMBL4069376] | 5.19 | Active |  | 
COc1ccccc1-c1nnc(-c2ccc(C(=O)N/N=C/c3ccccn3)cc2)o1 [CHEMBL4069827] | 5.04 | Active |  | 
COc1ccccc1-c1nnc(-c2ccc(C(=O)N/N=C/c3cccc(F)c3)cc2)o1 [CHEMBL4072092] | 5.20 | Active |  | 
COc1ccccc1-c1nnc(-c2ccc(C(=O)N/N=C/c3ccccc3C)cc2)o1 [CHEMBL4072556] | 4.47 | Inactive |  | 
COc1ccccc1-c1nnc(-c2ccc(C(=O)N/N=C/c3ccccc3O)cc2)o1 [CHEMBL4074817] |  |  | 5.38 | Active
O=[N+]([O-])c1cn2c(n1)OC[C@H](Oc1ccc(OC(F)(F)F)cc1)C2 [CHEMBL4078293] |  |  | 5.63 | Active
COc1ccccc1-c1nnc(-c2ccc(C(=O)N/N=C/c3ccc(C)cc3)cc2)o1 [CHEMBL4079056] | 4.53 | Inactive |  | 
COc1ccccc1-c1nnc(-c2ccc(C(=O)N/N=C/c3c(O)cc(O)cc3O)cc2)o1 [CHEMBL4080097] |  |  | 5.32 | Active
COc1ccccc1-c1nnc(-c2ccc(C(=O)N/N=C/c3ccncc3)cc2)o1 [CHEMBL4080524] | 4.41 | Inactive |  | 
COc1ccc(O)c(/C=N/NC(=O)c2ccc(-c3nnc(-c4ccccc4OC)o3)cc2)c1 [CHEMBL4082571] | 4.79 | Inactive |  | 
O/N=C1/c2ccccc2OC(c2ccc(Cl)cc2)C1n1ccnc1 (stereo not shown) [CHEMBL4083146] |  |  | 6.22 | Active
COc1ccccc1-c1nnc(-c2ccc(C(=O)N/N=C/c3ccc(O)cc3)cc2)o1 [CHEMBL4085064] | 5.13 | Active |  | 
COc1ccccc1-c1nnc(-c2ccc(C(=O)N/N=C/c3cccc([N+](=O)[O-])c3)cc2)o1 [CHEMBL4086911] | 4.13 | Inactive |  | 
COc1ccccc1-c1nnc(-c2ccc(C(=O)N/N=C/c3ccc(O)cc3O)cc2)o1 [CHEMBL4087969] |  |  | 5.42 | Active

Structure (SMILES) | pIC50 Value (L. major [1]; [3]) | Outcome (L. major [2]; [4]) | pIC50 Value (L. major [1]; [5]) | Outcome (L. major [2]; [6])
COc1ccccc1-c1nnc(-c2ccc(C(=O)N/N=C/c3ccccc3Cl)cc2)o1 [CHEMBL4088386] | 4.54 | Inactive |  | 
O/N=C1/c2ccccc2OC(c2cccc(Cl)c2)C1n1ccnc1 (stereo not shown) [CHEMBL4088885] | 4.58 | Inactive |  | 
COc1ccc(/C=N/NC(=O)c2ccc(-c3nnc(-c4ccccc4OC)o3)cc2)c(O)c1 [CHEMBL4090407] | 5.18 | Active |  | 
COc1ccccc1-c1nnc(-c2ccc(C(=O)N/N=C/c3cccnc3)cc2)o1 [CHEMBL4090822] | 4.33 | Inactive |  | 
COc1ccccc1-c1nnc(-c2ccc(C(=O)N/N=C/c3ccc(O)c(O)c3)cc2)o1 [CHEMBL4092817] |  |  | 6.02 | Active
COc1ccccc1-c1nnc(-c2ccc(C(=O)N/N=C/c3cccc(Cl)c3)cc2)o1 [CHEMBL4096109] | 4.68 | Inactive |  | 
COc1ccccc1-c1nnc(-c2ccc(C(=O)N/N=C/c3cccc(C)c3)cc2)o1 [CHEMBL4097073] | 4.40 | Inactive |  | 
COc1ccccc1-c1nnc(-c2ccc(C(=O)N/N=C/c3cc(O)c(O)cc3O)cc2)o1 [CHEMBL4098126] |  |  | 6.01 | Active
COc1cccc(/C=N/NC(=O)c2ccc(-c3nnc(-c4ccccc4OC)o3)cc2)c1 [CHEMBL4098544] | 4.10 | Inactive |  | 
COc1ccccc1-c1nnc(-c2ccc(C(=O)N/N=C/c3ccc(F)cc3)cc2)o1 [CHEMBL4099059] | 4.85 | Inactive |  | 
COc1ccc(/C=N/NC(=O)c2ccc(-c3nnc(-c4ccccc4OC)o3)cc2)cc1 [CHEMBL4099467] | 4.13 | Inactive |  | 
COc1ccccc1-c1nnc(-c2ccc(C(=O)N/N=C/c3cccc(O)c3)cc2)o1 [CHEMBL4103014] | 4.74 | Inactive |  | 
COc1ccccc1-c1nnc(-c2ccc(C(=O)N/N=C/c3ccccc3[N+](=O)[O-])cc2)o1 [CHEMBL4104790] | 4.19 | Inactive |  | 
C#CCOc1ccc(/C=N/NC(N)=S)cc1OC [CHEMBL4159578] |  |  | 5.85 | Active
COc1cc(/C=N\NC(N)=S)ccc1OCc1cn(CC(=O)c2ccc(Br)cc2)nn1 [CHEMBL4159895] | 5.29 | Active |  | 
COc1cc(OCC=C(C)C)ccc1C(=O)/C=C/c1ccc([N+](=O)[O-])cc1 [CHEMBL4161584] |  |  | 5.48 | Active
C#CCOc1ccc(C(=O)/C=C/c2ccc(F)cc2)c(OCC#C)c1 [CHEMBL4162285] | 5.00 | Active |  | 
COc1cc(/C=N/NC(N)=S)ccc1OCc1cn(CC(=O)c2ccc(C)cc2)nn1 [CHEMBL4163267] |  |  | 5.30 | Active
COc1ccc(/C=N\NC(N)=S)cc1OCc1cn(CC(=O)c2ccc(Cl)cc2)nn1 [CHEMBL4163696] |  |  | 5.77 | Active
